Assays:
Human astrocyte cells = experiment: Multiplex ELISA of cytokine concentrations in astrocyte culture media; type: cell-based; conditions: for % Change of Cytokine Concentration IL-1α, GIT 27 vs DMSO treated vehicle / % Change of Cytokine Concentration IL-1β, GIT 27 vs DMSO treated vehicle / % Change of Cytokine Concentration IL-6, GIT 27 vs DMSO treated vehicle / % Change of Cytokine Concentration IL-8, GIT 27 vs DMSO treated vehicle / % Change of Cytokine Concentration IL-10, GIT 27 vs DMSO treated vehicle / % Change of Cytokine Concentration TNF-α, GIT 27 vs DMSO treated vehicle: GIT 27 1000 μg/mL
Protocol: Media Creation: A media stock solution was created by combining astrocyte media (ScienCell), supplement kit, 10 mL fetal bovine serum (FBS), 5 mL penicillin/streptomycin, and 5 mL astrocyte growth serum (ScienCell), and an additional 10 mL FBS (ScienCell). IL-1β and IL-10 were diluted to a concentration of 50,000 ng/mL and 100,000 ng/mL, respectively, in phosphate buffer solution (PBS, w/v). GIT 27 was dissolved in a dimethyl sulfoxide (DMSO) vehicle (Sigma-Aldrich) to a concentration of 20 mg/mL (w/v).
Media solutions for the different groups were made directly before each media change. Cytokines IL-1β or IL-10 were added to the media stock solution for a final concentration of 14.67 ng/mL. GIT 27 was added for a concentration of 1000 μg/mL in the media stock solution for our experimental group. […] Our vehicle group contained 50 μL/mL DMSO alone, which is proportional to the amount in the GIT 27 treated group. Concentrations were then made for evaluation of dose and time dependency (FIGS. 6A-6F).
Cell Culture: Human astrocyte cells were initially grown in T75 flasks with media changes every three days using basic astrocyte media and washed with Hanks Balanced Salt Solution without Calcium and Magnesium (Gibco). Once the flasks came to confluency, the cells were trypsinized using Trypsin-EDTA at 0.25% (Gibco) and seeded at a seeding density of 250,000 cells per well. These samples were broken up into three treatment groups: control, DMSO, and GIT 27 tested as a pre-treatment, simultaneous treatment, and post-treatment (FIGS. 6A-6F). Each group and treatment time were then either exposed to IL-1β or IL-10 separately at concentrations described for media creation.
ELISA: As previously published, the Bursky Center for Human Immunology & Immunotherapy Programs Immunomonitoring Laboratory at Washington University School of Medicine ran the multiplex assays according to the manufacturer's protocol (Khodadadei et al., bioRxiv 2021.11.04.467357, 2021. https://doi.org/10.1101/2021.11.04.467357). Samples of culture media analyzed were collected on days 1, 5, 7, 9, 12, and 14 of culture following seeding day. Each frozen supernatant media sample was rapidly thawed at 37° C. and centrifuged at 15,000 G for five minutes prior to incubating with the two-multiplex immunoassay for the following inflammatory cytokines: IL-1α, IL-1β, IL-6, TNF-α, IL-8, IL-10 (ThermoFisher Scientific), C3, and C1q (Millipore Sigma). Magnetic beads and assay buffer were added to all the wells of a 96 well-plate. Media samples and standards were then added in duplicate. The wells were thoroughly washed, and the detection antibody was then added followed by a streptavidin phycoerythrin incubation. Beads were resuspended with sheath fluid and 50 beads per region were acquired on a Luminex FLEXMAP3D system. The concentration of each analyte was then calculated by comparing the sample mean fluorescent intensity to the appropriate standard curve. Belysa v.1 software (Millipore Sigma) was used to generate a 5-parameter logistical curve fit algorithm. Protein concentration is reported as pg/mL for each analyte.
Statistical Analysis: Three conditions were tested in this experiment, treatment group, treatment time, and IL B or IL10 exposure, with a total of 16 different samples tested with an n=five of replicates. The three treatment groups tested were a control, vehicle control (DMSO), and GIT 27 (G27). Each treatment group was tested as a pre-treatment (denoted Pre-), dose simultaneous to treatment (denoted Sim-), and post-treatment (denoted Post-) as time points with respect to shunt insertion represented by exposure to either IL-1β (IL1B) or IL-10 (IL10). Utilizing the abbreviations described here we combined these to allow for an easier understand of the results presented. An example of this can be control Pre-IL1B, DMSO Pre-IL1B, and G27 Pre-IL1B which represents the three treatment groups when used as a pre-treatment to IL-1β exposure.

Solubility of GIT 27 = type: physicochemical
[1] = G27 Sim-IL1B compared to G27 Post-IL1B
[2] = G27 Sim-IL1B compared to G27 Pre-IL1B
[3] = G27 Sim-IL10 compared to both G27 Pre-IL10 and G27 Post-IL10
[4] = Post-IL10, vs control Post-IL10
[5] = Post-Treatment (C), exposed to IL-1β
[6] = Post-Treatment (C), exposed to IL-10
[7] = Pre-IL1B, vs DMSO Pre-IL1B (not vs control)
[8] = Pre-Treatment (A), exposed to IL-1β
[9] = Pre-Treatment (A), exposed to IL-10
[10] = Simultaneous Treatment (B), exposed to IL-1β
[11] = Simultaneous Treatment (B), exposed to IL-10

solubility (Solubility of GIT 27): only soluble in DMSO
SMILES: O=C(O)CC1CC(c2ccccc2)=NO1 (stereo not drawn) [GIT 27, 4,5-Dihydro-3-phenyl-5-isoxazoleacetic acid]
IL-10 concentration by treatment time (Human astrocyte cells; G27 Post-IL10 compared to G27 Sim-IL10): significantly lower
TNF-α concentration by treatment time (Human astrocyte cells; G27 Pre-IL10 compared to G27 Sim-IL10 and G27 Post-IL10): significantly higher
IL-6 concentration by treatment time (Human astrocyte cells; [1]): significantly lower
TNF-α concentration by treatment time (Human astrocyte cells; [1]): significantly lower
IL-10 concentration by treatment time (Human astrocyte cells; [2]): lower
TNF-α concentration by treatment time (Human astrocyte cells; [2]): lower
IL-1α concentration by treatment time (Human astrocyte cells; [3]): significantly higher
IL-1β concentration by treatment time (Human astrocyte cells; [3]): significantly higher
IL-1α concentration compared to both control and DMSO (Human astrocyte cells; Post-IL1B): significantly lower
IL-10 concentration compared to both control and DMSO (Human astrocyte cells; Post-IL1B): significantly lower
IL-6 concentration compared to DMSO (Human astrocyte cells; Post-IL1B, vs DMSO Post-IL1B): significantly lower
IL-8 concentration compared to DMSO (Human astrocyte cells; Post-IL1B, vs DMSO Post-IL1B): significantly lower
TNF-α concentration compared to DMSO (Human astrocyte cells; Post-IL1B, vs DMSO Post-IL1B): significantly lower
IL-1α concentration compared to control and DMSO (Human astrocyte cells; Post-IL10): significantly lower
IL-6 concentration compared to control and DMSO (Human astrocyte cells; Post-IL10): significantly lower
IL-8 concentration compared to control and DMSO (Human astrocyte cells; Post-IL10): significantly lower
TNF-α concentration compared to DMSO (Human astrocyte cells; Post-IL10, vs DMSO Post-IL10): significantly lower
IL-10 concentration compared to control (Human astrocyte cells; [4]): significantly lower
TNF-α concentration compared to control (Human astrocyte cells; [4]): significantly lower
% Change of Cytokine Concentration IL-1α, GIT 27 vs DMSO treated vehicle (Human astrocyte cells; [5]): −20.17%
% Change of Cytokine Concentration IL-1β, GIT 27 vs DMSO treated vehicle (Human astrocyte cells; [5]): −16.52%
% Change of Cytokine Concentration IL-6, GIT 27 vs DMSO treated vehicle (Human astrocyte cells; [5]): −28.57%
% Change of Cytokine Concentration IL-8, GIT 27 vs DMSO treated vehicle (Human astrocyte cells; [5]): −57.49%
% Change of Cytokine Concentration IL-10, GIT 27 vs DMSO treated vehicle (Human astrocyte cells; [5]): −33.02%
% Change of Cytokine Concentration TNF-α, GIT 27 vs DMSO treated vehicle (Human astrocyte cells; [5]): −33.45%
% Change of Cytokine Concentration IL-1α, GIT 27 vs DMSO treated vehicle (Human astrocyte cells; [6]): −85.58%
% Change of Cytokine Concentration IL-1β, GIT 27 vs DMSO treated vehicle (Human astrocyte cells; [6]): 0.00%
% Change of Cytokine Concentration IL-6, GIT 27 vs DMSO treated vehicle (Human astrocyte cells; [6]): −76.82%
% Change of Cytokine Concentration IL-8, GIT 27 vs DMSO treated vehicle (Human astrocyte cells; [6]): −78.86%
% Change of Cytokine Concentration IL-10, GIT 27 vs DMSO treated vehicle (Human astrocyte cells; [6]): −71.33%
% Change of Cytokine Concentration TNF-α, GIT 27 vs DMSO treated vehicle (Human astrocyte cells; [6]): −80.45%
IL-1α concentration, difference between treatment groups (Human astrocyte cells; Pre-IL1B): no significant difference
IL-8 concentration, difference between treatment groups (Human astrocyte cells; Pre-IL1B): no significant difference
IL-10 concentration, difference between treatment groups (Human astrocyte cells; Pre-IL1B): no significant difference
TNF-α concentration, difference between treatment groups (Human astrocyte cells; Pre-IL1B): no significant difference
IL-1β concentration compared to DMSO (Human astrocyte cells; [7]): significantly lower
IL-6 concentration compared to DMSO (Human astrocyte cells; [7]): significantly lower
any of the cytokine concentrations, difference between treatment groups (Human astrocyte cells; Pre-IL10): no significant difference
% Change of Cytokine Concentration IL-1α, GIT 27 vs DMSO treated vehicle (Human astrocyte cells; [8]): −30.49%
% Change of Cytokine Concentration IL-1β, GIT 27 vs DMSO treated vehicle (Human astrocyte cells; [8]): −42.70%
% Change of Cytokine Concentration IL-6, GIT 27 vs DMSO treated vehicle (Human astrocyte cells; [8]): −76.60%
% Change of Cytokine Concentration IL-8, GIT 27 vs DMSO treated vehicle (Human astrocyte cells; [8]): −31.56%
% Change of Cytokine Concentration IL-10, GIT 27 vs DMSO treated vehicle (Human astrocyte cells; [8]): 26908.58%
% Change of Cytokine Concentration TNF-α, GIT 27 vs DMSO treated vehicle (Human astrocyte cells; [8]): −12.41%
% Change of Cytokine Concentration IL-1α, GIT 27 vs DMSO treated vehicle (Human astrocyte cells; [9]): 11.34%
% Change of Cytokine Concentration IL-1β, GIT 27 vs DMSO treated vehicle (Human astrocyte cells; [9]): 0.00%
% Change of Cytokine Concentration IL-6, GIT 27 vs DMSO treated vehicle (Human astrocyte cells; [9]): 21.96%
% Change of Cytokine Concentration IL-8, GIT 27 vs DMSO treated vehicle (Human astrocyte cells; [9]): −43.65%
% Change of Cytokine Concentration IL-10, GIT 27 vs DMSO treated vehicle (Human astrocyte cells; [9]): −6.42%
% Change of Cytokine Concentration TNF-α, GIT 27 vs DMSO treated vehicle (Human astrocyte cells; [9]): −13.92%
IL-1α concentration compared to control (Human astrocyte cells; Sim-IL1B, vs control Sim-IL1B): significantly lower
IL-1β concentration compared to control (Human astrocyte cells; Sim-IL1B, vs control Sim-IL1B): significantly lower
IL-10 concentration compared to control (Human astrocyte cells; Sim-IL1B, vs control Sim-IL1B): significantly lower
TNF-α concentration compared to control (Human astrocyte cells; Sim-IL1B, vs control Sim-IL1B): significantly lower
IL-1α concentration compared to DMSO and control (Human astrocyte cells; Sim-IL10): significantly decrease
IL-8 concentration compared to DMSO and control (Human astrocyte cells; Sim-IL10): significantly decrease
IL-10 concentration compared to both DMSO and control (Human astrocyte cells; Sim-IL10): significantly lower
TNF-α concentration compared to control (Human astrocyte cells; Sim-IL10): significantly lowered
% Change of Cytokine Concentration IL-1α, GIT 27 vs DMSO treated vehicle (Human astrocyte cells; [10]): −40.83%
% Change of Cytokine Concentration IL-1β, GIT 27 vs DMSO treated vehicle (Human astrocyte cells; [10]): −8.24%
% Change of Cytokine Concentration IL-6, GIT 27 vs DMSO treated vehicle (Human astrocyte cells; [10]): 31.97%
% Change of Cytokine Concentration IL-8, GIT 27 vs DMSO treated vehicle (Human astrocyte cells; [10]): −34.82%
% Change of Cytokine Concentration IL-10, GIT 27 vs DMSO treated vehicle (Human astrocyte cells; [10]): −31.11%
% Change of Cytokine Concentration TNF-α, GIT 27 vs DMSO treated vehicle (Human astrocyte cells; [10]): −8.65%
% Change of Cytokine Concentration IL-1α, GIT 27 vs DMSO treated vehicle (Human astrocyte cells; [11]): −66.52%
% Change of Cytokine Concentration IL-1β, GIT 27 vs DMSO treated vehicle (Human astrocyte cells; [11]): −89.31%
% Change of Cytokine Concentration IL-6, GIT 27 vs DMSO treated vehicle (Human astrocyte cells; [11]): −28.89%
% Change of Cytokine Concentration IL-8, GIT 27 vs DMSO treated vehicle (Human astrocyte cells; [11]): −81.04%
% Change of Cytokine Concentration IL-10, GIT 27 vs DMSO treated vehicle (Human astrocyte cells; [11]): −49.58%
% Change of Cytokine Concentration TNF-α, GIT 27 vs DMSO treated vehicle (Human astrocyte cells; [11]): −53.95%
IFN-γ concentration (Human astrocyte cells; any of the treatment groups): no detectable concentration

Source: patent US20240374879A1, “METHODS AND COMPOSITIONS TO REDUCE CELLULAR DEPOSITION, AND HYDROCEPHALUS SHUNT FAILURE” (Wayne State University, priority 2021, published 2024)
